Data: patent US12655116B2, “Substituted isophthalic acid diamides” (Bayer Aktiengesellschaft, priority 2020, dated 2026)

How the values were obtained:
[1] = tested on: AMARE; experiment: Post-emergence herbicidal action against AMARE; format: in vivo, Amaranthus retroflexus; settings: Amaranthus retroflexus, 504 h, visual assessment about 3 weeks after treatment, 100% = plants have died, 0% = like control plants
Outline: (§1)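 Weeds in sandy loam soil received a post-emergence spray at the one-leaf stage. Compounds were applied as WP or EC in water, 600 to 800 l/ha, with 0.2% wetting agent. Activity in % was judged visually after roughly 3 weeks against untreated plants.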

[2] = tested on: ECHCG; experiment: Post-emergence herbicidal action against ECHCG; format: in vivo, Echinochloa crus-galli; settings: Echinochloa crus-galli, 504 h; for pest or weed control at 20 g/ha: dosage 20 g/ha; for pest or weed control at 80 g/ha: dosage 80 g/ha
Outline: as §1

[3] = tested on: ECHCG; experiment: Pre-emergence herbicidal action against ECHCG; format: in vivo, Echinochloa crus-galli; settings: Echinochloa crus-galli, 504 h
Outline: (§2)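 Visual rating at 3 weeks vs untreated pots; 0–100% scale, 100% = plants died. Treatment: aqueous WP/EC spray onto covering soil, 600–800 l/ha, 0.2% wetter, seeds in sandy loam.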

[4] = tested on: SETVI; experiment: Post-emergence herbicidal action against SETVI; format: in vivo, Setaria viridis; settings: Setaria viridis, 504 h
Outline: as §1

[5] = tested on: VIOTR; experiment: Post-emergence herbicidal action against VIOTR; format: in vivo, Viola tricolor; settings: Viola tricolor, 504 h
Outline: as §1

[6] = tested on: ALOMY; experiment: Post-emergence herbicidal action against ALOMY; format: in vivo, Alopecurus myosuroides; settings: Alopecurus myosuroides, 504 h, visual assessment about 3 weeks after treatment vs untreated controls; for pest or weed control at 20 g/ha: dosage 20 g/ha; for pest or weed control at 80 g/ha: dosage 80 g/ha
Outline: as §1

[7] = tested on: ALOMY; experiment: Pre-emergence herbicidal action against ALOMY; format: in vivo, Alopecurus myosuroides; settings: Alopecurus myosuroides, 504 h, pre-emergence; for pest or weed control at 80 g/ha: scored visually after 3 weeks vs untreated controls (100% = plants have died, 0% = like control plants)
Outline: as §2

[8] = tested on: MATIN; experiment: Post-emergence herbicidal action against MATIN; format: in vivo, Matricaria inodora; settings: Tripleurospermum inodorum, 504 h; for pest or weed control at 20 g/ha: dosage 20 g/ha; for pest or weed control at 80 g/ha: dosage 80 g/ha
Outline: as §1

[9] = tested on: HORMU; experiment: Pre-emergence herbicidal action against HORMU; format: in vivo, Hordeum murinum; settings: Hordeum murinum, 504 h, pre-emergence
Outline: as §2

[10] = tested on: LOLRI; experiment: Pre-emergence herbicidal action against LOLRI; format: in vivo, Lolium rigidum; settings: Lolium rigidum, 504 h
Outline: as §2

[11] = tested on: HORMU; experiment: Post-emergence herbicidal action against HORMU; format: in vivo, Hordeum murinum; settings: Hordeum murinum, 504 h; for pest or weed control at 20 g/ha: dosage 20 g/ha; for pest or weed control at 80 g/ha: dosage 80 g/ha
Outline: as §1

[12] = tested on: PHBPU; experiment: Post-emergence herbicidal action against PHBPU; format: in vivo, Pharbitis purpurea; settings: Ipomoea purpurea, 504 h; for pest or weed control at 80 g/ha: dosage 80 g/ha
Outline: as §1

[13] = tested on: VIOTR; experiment: Pre-emergence herbicidal action against VIOTR; format: in vivo, Viola tricolor; settings: Viola tricolor, 504 h; for pest or weed control at 80 g/ha: dosage 80 g/ha; for pest or weed control at 320 g/ha: dosage 320 g/ha
Outline: as §2

[14] = tested on: VERPE; experiment: Post-emergence herbicidal action against VERPE; format: in vivo, Veronica persica; settings: Veronica persica, 504 h
Outline: as §1

[15] = tested on: SETVI; experiment: Pre-emergence herbicidal action against SETVI; format: in vivo, Setaria viridis; settings: Setaria viridis, 504 h; for pest or weed control at 80 g/ha: dosage 80 g/ha; for pest or weed control at 320 g/ha: dosage 320 g/ha
Outline: as §2

[16] = tested on: AVEFA; experiment: Post-emergence herbicidal action against AVEFA; format: in vivo, Avena fatua; settings: Avena fatua, 504 h, visual assessment about 3 weeks after treatment, 100% = plants have died, 0% = like control plants
Outline: as §1

[17] = tested on: LOLRI; experiment: Post-emergence herbicidal action against LOLRI; format: in vivo, Lolium rigidum; settings: Lolium rigidum, 504 h; for pest or weed control at 80 g/ha: dosage 80 g/ha
Outline: as §1

[18] = tested on: VERPE; experiment: Pre-emergence herbicidal action against VERPE; format: in vivo, Veronica persica; settings: Veronica persica, 504 h; for pest or weed control at 320 g/ha: dosage 320 g/ha
Outline: as §2

[19] = tested on: MATIN; experiment: Pre-emergence herbicidal action against MATIN; format: in vivo, Matricaria inodora; settings: Tripleurospermum inodorum, 504 h; for pest or weed control at 80 g/ha: dosage 80 g/ha; for pest or weed control at 320 g/ha: dosage 320 g/ha
Outline: as §2

[20] = tested on: POLCO; experiment: Pre-emergence herbicidal action against POLCO; format: in vivo, Polygonum convolvulus; settings: Fallopia convolvulus, 504 h; for pest or weed control at 320 g/ha: dosage 320 g/ha
Outline: as §2

[21] = tested on: STEME; experiment: Pre-emergence herbicidal action against STEME; format: in vivo, Stellaria media; settings: Stellaria media, 504 h; for pest or weed control at 80 g/ha: dosage 80 g/ha; for pest or weed control at 320 g/ha: dosage 320 g/ha
Outline: as §2

[22] = tested on: POLCO; experiment: Post-emergence herbicidal action against POLCO; format: in vivo, Polygonum convolvulus; settings: Fallopia convolvulus, 504 h, dosage 80 g/ha
Outline: as §1

[23] = tested on: ABUTH; experiment: Pre-emergence herbicidal action against ABUTH; format: in vivo, Abutilon theophrasti; settings: Abutilon theophrasti, 504 h; for pest or weed control at 80 g/ha: scored visually after 3 weeks vs untreated controls (100% = plants have died, 0% = like control plants); for pest or weed control at 320 g/ha: Dosage: 320 g/ha, scored visually after 3 weeks
Outline: as §2

[24] = scored visually after 3 weeks, 100% = plants have died, 0% = like control plants
[25] = 100% = plants have died, 0% = like control plants

SMILES: CNC(=O)c1c(C(F)(F)F)ccc(C(=O)Nc2nnnn2C)c1Cl [Example 1-129]
- pest or weed control at 20 g/ha [1]: 100%
- pest or weed control at 80 g/ha [1]: 100%
- pest or weed control at 5 g/ha ([2]; dosage 5 g/ha): 100%
- pest or weed control at 20 g/ha [2]: 100%
- pest or weed control at 80 g/ha [2]: 100%
- pest or weed control at 20 g/ha ([3]; 20 g/ha): 80%
- pest or weed control at 80 g/ha [3]: 100%
- pest or weed control at 320 g/ha [3]: 100%
- pest or weed control at 5 g/ha ([4]; dosage 5 g/ha): 100%
- pest or weed control at 20 g/ha ([4]; dosage 20 g/ha): 100%
- pest or weed control at 80 g/ha ([4]; dosage 80 g/ha): 100%
- pest or weed control at 5 g/ha ([5]; 5 g/ha): 80%
- pest or weed control at 20 g/ha ([5]; 20 g/ha): 100%
- pest or weed control at 80 g/ha [5]: 100%
- pest or weed control at 5 g/ha ([6]; dosage 5 g/ha): 90%
- pest or weed control at 20 g/ha [6]: 100%
- pest or weed control at 80 g/ha [6]: 100%
- pest or weed control at 80 g/ha [7]: 100%
- pest or weed control at 20 g/ha ([7]; 20 g/ha, scored visually after 3 weeks, 100% = plants have died, 0% = like control plants): 90%
- pest or weed control at 320 g/ha [7, 24]: 100%
- pest or weed control at 20 g/ha [8]: 90%
- pest or weed control at 80 g/ha [8]: 100%
- pest or weed control at 80 g/ha [9]: 90%
- pest or weed control at 320 g/ha [9]: 100%
- pest or weed control at 80 g/ha ([10]; 80 g/ha): 90%
- pest or weed control at 320 g/ha [10]: 100%
- pest or weed control at 5 g/ha ([11]; dosage 5 g/ha): 90%
- pest or weed control at 20 g/ha [11]: 100%
- pest or weed control at 80 g/ha [11]: 100%
- pest or weed control at 5 g/ha ([12]; dosage 5 g/ha): 80%
- pest or weed control at 20 g/ha ([12]; dosage 20 g/ha): 100%
- pest or weed control at 80 g/ha [12]: 100%
- pest or weed control at 20 g/ha ([13]; dosage 20 g/ha): 100%
- pest or weed control at 80 g/ha [13]: 100%
- pest or weed control at 320 g/ha [13]: 100%
- pest or weed control at 5 g/ha ([14]; 5 g/ha): 80%
- pest or weed control at 20 g/ha [14]: 80%
- pest or weed control at 80 g/ha [14]: 100%
- pest or weed control at 80 g/ha [15]: 100%
- pest or weed control at 320 g/ha [15]: 100%
- pest or weed control at 20 g/ha [16]: 100%
- pest or weed control at 80 g/ha [16]: 100%
- pest or weed control at 5 g/ha ([17]; dosage 5 g/ha): 80%
- pest or weed control at 20 g/ha ([17]; dosage 20 g/ha): 100%
- pest or weed control at 80 g/ha [17]: 100%
- pest or weed control at 80 g/ha ([18]; dosage 80 g/ha): 100%
- pest or weed control at 320 g/ha [18]: 100%
- pest or weed control at 20 g/ha ([19]; dosage 20 g/ha): 100%
- pest or weed control at 80 g/ha [19]: 100%
- pest or weed control at 320 g/ha [19]: 100%
- pest or weed control at 80 g/ha ([20]; dosage 80 g/ha): 100%
- pest or weed control at 320 g/ha [20]: 100%
- pest or weed control at 20 g/ha ([21]; dosage 20 g/ha): 100%
- pest or weed control at 80 g/ha [21]: 100%
- pest or weed control at 320 g/ha [21]: 100%
- pest or weed control at 80 g/ha [22]: 100%
- pest or weed control at 80 g/ha [23]: 100%
- pest or weed control at 320 g/ha [23, 25]: 100%
- pest or weed control at 20 g/ha ([23]; dosage 20 g/ha, scored visually after 3 weeks vs untreated controls, 100% = plants have died, 0% = like control plants, read-out: Pre-emergence action against ABUTH (herbicidal activity in percent)): 100%

SMILES: CCn1nnnc1NC(=O)c1ccc(C(F)F)c(C(=O)NC)c1Cl [Example 2-147]
- pest or weed control at 20 g/ha [1]: 90%
- pest or weed control at 80 g/ha [1]: 90%
- pest or weed control at 20 g/ha [2]: 90%
- pest or weed control at 80 g/ha [2]: 90%
- pest or weed control at 80 g/ha [3]: 100%
- pest or weed control at 320 g/ha [3]: 100%
- pest or weed control at 80 g/ha [5]: 80%
- pest or weed control at 20 g/ha [6]: 80%
- pest or weed control at 80 g/ha [6]: 90%
- pest or weed control at 80 g/ha [7]: 90%
- pest or weed control at 320 g/ha [7, 24]: 100%
- pest or weed control at 20 g/ha [8]: 100%
- pest or weed control at 80 g/ha [8]: 100%
- pest or weed control at 80 g/ha [9]: 90%
- pest or weed control at 320 g/ha [9]: 100%
- pest or weed control at 320 g/ha [10]: 90%
- pest or weed control at 20 g/ha [11]: 80%
- pest or weed control at 80 g/ha [11]: 90%
- pest or weed control at 80 g/ha [12]: 80%
- pest or weed control at 80 g/ha [13]: 100%
- pest or weed control at 320 g/ha [13]: 100%
- pest or weed control at 20 g/ha [14]: 80%
- pest or weed control at 80 g/ha [14]: 90%
- pest or weed control at 80 g/ha [15]: 100%
- pest or weed control at 320 g/ha [15]: 100%
- pest or weed control at 20 g/ha [16]: 90%
- pest or weed control at 80 g/ha [16]: 100%
- pest or weed control at 80 g/ha [17]: 90%
- pest or weed control at 320 g/ha [18]: 90%
- pest or weed control at 80 g/ha [19]: 100%
- pest or weed control at 320 g/ha [19]: 100%
- pest or weed control at 320 g/ha [20]: 80%
- pest or weed control at 80 g/ha [21]: 100%
- pest or weed control at 320 g/ha [21]: 100%
- pest or weed control at 80 g/ha [22]: 80%
- pest or weed control at 80 g/ha [23]: 100%
- pest or weed control at 320 g/ha [23, 25]: 100%
